In patent publication US20230365577A1, “Photodynamic Therapy and Diagnosis” (RMW CHO Group Limited, priority 2020, published 2023):
Structures can show the parent of a compound that is named as a salt. Where two headings read alike, the source gives them in different places.

Key:
[1] = Singlet oxygen (1O2) production rate; assay type: physicochemical
Text: The production of singlet oxygen (^1O2), cellular phototoxicity and light-independent cytotoxicity (“dark toxicity”) of a number of phyllochlorin analogues were compared against chlorin e4 disodium and Talaporfin sodium (mono-L-aspartyl chlorin e6), the active ingredient of Laserphyrin™.

[2] = test system: SKOV3 cells; experiment: Cellular uptake and retention (intrinsic fluorescence); assay type: cell-based, Human; conditions: for Uptake and clearance, comparison of the two salt forms: SKOV3, 24 hours uptake then 24 hours clearance
Method: Based on the increased phototoxicity of compound 1c versus compound 1, it was assessed whether this salt substitution alters cellular uptake or retention over time. SKOV3 cells were incubated for up 24 hours in the presence of either compound 1 or 1c (as previously described). At defined time intervals (FIG. 5) the media was aspirated, replaced with sterile PBS, and cells imaged for fluorescence (Ex 405 nm/Em 660 nm) using a Cytation 3 Multimode Plate Reader (Biotek). After 24 hours the media was aspirated, replaced with fresh media and the loss of cellular fluorescence similarly monitored. All images (minimum 100 cells per time point) were then quantitatively analysed (Gen5.0 software) and an average fluorescence/cell/time point determined. Average fluorescence measurements were normalised against the maximum average value measured for each photosensitizer, and plotted as percent total fluorescence (mean±SD) overtime.
The uptake and retention of compounds 1 and 2 was compared in SKOV3 cancer cells over a 48 hour period. SKOV3 cells were incubated for up 24 hours in the presence of either compound 1 or 2 (as previously described). At defined time intervals (FIG. 6) the media was aspirated, replaced with sterile PBS, and cells imaged for fluorescence (Ex 405 nm/Em 660 nm) using a Cytation 3 Multimode Plate Reader (Biotek). After 24 hours the media was aspirated, replaced with fresh media and the loss of cellular fluorescence similarly monitored. All images (minimum 100 cells per time point) were then quantitatively analysed (Gen5.0 software) and an average fluorescence/cell/time point determined. Average fluorescence measurements were normalised against the maximum average value measured for each photosensitizer, and plotted as percent total fluorescence (mean±SD) over time.
Phyllochlorin was functionalised with saccharidyl groups (glucose or mannose) using various configurations, and the effects on rate of uptake by cells assessed over a 4 hour incubation period as above. The rate of uptake of saccharidyl-conjugated phyllochlorin analogues exceeded that of unconjugated compound 2 (examples shown in FIG. 7); after 2 hours, saccharidyl-conjugated phyllochlorin analogues (compounds 6, 8 and 17) had reached 57-68% of their maximal uptake compared to 37% for compound 2 (FIG. 7A). By 4 hours total uptake was similar, and there was no apparent difference in cellular distribution between glucose (compounds 6 and 8) and mannose (compound 17) linked species (FIG. 7B).

[3] = test system: SKOV3 ovarian cancer cells; experiment: Inherent cytotoxicity (dark toxicity) in SKOV3 cells (AlamarBlue viability); assay type: cell-based, Human; conditions: human, 24 h
Method: (§1) Human ovarian cancer cell line SKOV3 (ATCC #HTB-77) was maintained in Dulbecco's Modified Eagle Medium/Nutrient Mixture F-12 (DMEM/F-12), supplemented with 10% v/v Fetal Bovine Serum, 100 U/mL penicillin and 100 µg/mL streptomycin. Monolayer cultures were grown in a humidified incubator at 37° C. with 5% CO2.
(§2) For in vitro experiments, photosensitizers (stock solution 5.5 mM in 100% DMSO) were diluted in cell culture media (Dulbecco's Modified Eagle Medium/Nutrient Mixture F-12) supplemented with 10% v/v Fetal Bovine Serum, 100 U/mL penicillin, 100 µg/mL streptomycin and 10% w/v Kollidon-12. Once cells had reached ˜80% confluence, spent media was replaced with media containing photosensitizer and cells were incubated for the desired period of time to allow photosensitizer uptake.
(§3) SKOV3 cells were seeded in 96-well black wall plates (Greiner #655090) at a cell density of 5000 cells in 100 μl culture medium per well. On reaching ˜60% confluence, media was aspirated and replaced with fresh media containing the relevant phyllochlorin analogue from 0-100 μM in DMSO. Cells were incubated for a further 24 hours, allowing uptake of phyllochlorin analogues.
To test for inherent cytotoxicity (i.e. “dark toxicity”) of the phyllochlorin analogue the culture media was replaced after 24 hours with fresh media containing 10% (v/v) AlamarBlue Cell Viability Reagent (ThermoFisher) and cells incubated at 37° C. for 6 hours. Untreated cells were used as a control. Fluorescence (Ex 555 nm/Em 596 nm) was measured using a Cytation 3 Multimode Plate Reader (Biotek), and cytotoxicity assessed according to the % viable cells remaining. All measurements were made in quadruplicate.
(§4) For comparative purposes, phyllochlorin analogues were tested and compared against both chlorin e4 disodium and Talaporfin sodium, a clinically approved photosensitizer used in the photodynamic treatment of lung cancers. Phototoxicity IC90 values and dark toxicity IC10 values were calculated using a log[inhibitor]-vs normalized response dose curve with variable slope, using the formula Y=100/(1+(IC90/X)^HillSlope (phototoxicity IC90) or Y=100/(1+(IC10/X)^HillSlope (dark toxicity IC10).

[4] = test system: SKOV3 ovarian cancer cells; experiment: Phototoxicity in SKOV3 cells (652 nm laser, AlamarBlue viability); assay type: cell-based, Human; conditions: read-out: Cellular Toxicity: Phototoxicity IC90, SKOV3, 24 h uptake, 652 nm laser 50 mW/cm2 5 mins (15 J/cm2), viability 24 h later
Method: as §1, §2
as §3, with “confluence, so” for “confluence,”
To test for phototoxicity, cells incubated with phyllochlorin analogues (0-10 μM in DMSO) had culture media replaced after 24 hours (as above) and were then exposed to a 652 nm laser (Invion) with laser density at 50 mW/cm^2 for 5 mins (total 15 J/cm^2). Following activation, cells were cultured for a further 24 hours. Media was then replaced with fresh media containing AlamarBlue, and % viable cells remaining assessed as above. Controls included cells treated with phyllochlorin analogues but not activated by laser light; cells without phyllochlorin analogue treatment but with laser light; and untreated controls. All measurements were made in quadruplicate.
as §4

[5] = test system: 4T1 murine breast cancer cells; experiment: Tumour localisation and retention, model 1 (subcutaneous 4T1 tumours); assay type: in vivo, Balb/C wild type mice; conditions: 0.1 mg/kg IT, primary breast tumours, IVIS fluorescence
Method: Model 1 used Balb/C wild type mice implanted subcutaneously with 10^4×4T1 murine breast cancer cells. When tumours reached a palpable size (˜3-6 mm diameter) mice received compound 6 by either oral gavage (ORAL: 2.5 mg/kg), intravenous injection (IV: 1.0 mg/kg), or intratumoral injection (IT: 1.0 mg/kg in […]). To establish compound 6 localisation, mice were imaged using an IVIS Lumina III In Vivo Imaging System (Perkin Elmer) to detect fluorescence at 660 nm when illuminated under blue (400-460 nm) light.
In a second experiment, the localisation of compound 6 at 24 hours post-administration was compared to that of Talaporfin sodium and 5-Aminolevulinic acid (5-ALA), with all compounds injected at 0.1 mg/kg IT. Fluorescence measurements were made using an IVIS Lumina III instrument (as above).

[6] = Homo sapiens, SK-OV-3, light or radiation study

Compound	Cellular Toxicity: Dark toxicity IC10 [3]	Singlet Oxygen Production (slope) 1O2 [1]	IC90 [4, 6]	also measured
C=Cc1c(C)c2cc3nc(c(C)c4cc(C)c(cc5nc(cc1[nH]2)C(C)=C5CC)[nH]4)[C@@H](CCC(=O)O)[C@@H]3C [Compound 1, phyllochlorin sodium salt]	21960 nM	–	–	Singlet Oxygen Production (slope) 1O2 ([1]; sodium salt): 1445.0; Uptake and clearance, comparison of the two salt forms [2]: no significant difference; Fluorescence lost from cells ([2]; SKOV3, within 4 hours after replacing media): 80%; IC90 ([4]; sodium salt): 350 nM
C=Cc1c(C)c2cc3nc(c(C)c4cc(C)c(cc5nc(cc1[nH]2)C(C)=C5CC)[nH]4)[C@@H](CCC(=O)O)[C@@H]3C [Compound 1c, phyllochlorin choline salt]	58010 nM	1229.0	–	Uptake and clearance, comparison of the two salt forms [2]: no significant difference; IC90 [4]: 210 nM
C=Cc1c(C)c2cc3nc(c(C)c4cc(C)c(cc5nc(cc1[nH]2)C(C)=C5CC)[nH]4)[C@@H](CCC(=O)OC)[C@@H]3C [Compound 2, phyllochlorin methyl ester]	39620 nM	2141.0	260 nM	Percent of maximal uptake ([2]; SKOV3, after 2 hours incubation): 37%; Compound remaining within cells ([2]; SKOV3, after 24 hours clearance): > 50%
NCC(=O)CCC(=O)O [Compound 5-ALA, 5-Aminolevulinic acid, reference compound]	–	–	–	Tumour localisation at 24 hours post-administration [5]: could not be accurately detected
C=Cc1c(C)c2cc3nc(c(C)c4cc(C)c(cc5nc(cc1[nH]2)C(C)=C5CC)[nH]4)[C@@H](CCC(=O)N(C)CCOCCO[C@@H]1O[C@H](CO)[C@@H](O)[C@H](O)[C@H]1O)[C@@H]3C [Compound 14, 3-((7S,8S)-18-ethyl-2,5,8,12,17-pentamethyl-13-vinyl-7H,8H-porphyrin-7-yl)-N-methyl-N-(2-(2-(((2R,3R,4S,5S,6R)-3,4,5-trihydroxy-6-(hydroxymethyl)tetrahydro-2H-pyran-2-yl)oxy)ethoxy)ethyl)propanamide]	22790 nM	1293.0	170 nM	–
C=Cc1c(C)c2cc3nc(c(C)c4cc(C)c(cc5nc(cc1[nH]2)C(C)=C5CC)[nH]4)[C@@H](CCC(=O)N(C)CCCO[C@@H]1O[C@H](CO)[C@@H](O)[C@H](O)[C@H]1O)[C@@H]3C [Compound 15, 3-((7S,8S)-18-ethyl-2,5,8,12,17-pentamethyl-13-vinyl-7H,8H-porphyrin-7-yl)-N-methyl-N-(3-(((2R,3R,4S,5S,6R)-3,4,5-trihydroxy-6-(hydroxymethyl)tetrahydro-2H-pyran-2-yl)oxy)propyl)propanamide]	14600 nM	976.4	230 nM	–
C=Cc1c(C)c2cc3nc(c(C)c4cc(C)c(cc5nc(cc1[nH]2)C(C)=C5CC)[nH]4)[C@@H](CCC(=O)N(C)CCCS[C@H]1O[C@H](CO)[C@@H](O)[C@H](O)[C@@H]1O)[C@@H]3C [Compound 16, phyllochlorin α-D-1-thiomannose-N-methylpropylamide conjugate]	28640 nM	884.1	250 nM	–
C=Cc1c(C)c2cc3nc(c(C)c4cc(C)c(cc5nc(cc1[nH]2)C(C)=C5CC)[nH]4)[C@@H](CCC(=O)N(C)CCCS[C@@H]1O[C@H](CO)[C@@H](O)[C@H](O)[C@@H]1O)[C@@H]3C [Compound 17, phyllochlorin β-D-1-thiomannose-N-methylpropylamide conjugate]	76270 nM	1265.0	220 nM	–
C=Cc1c(C)c2cc3nc(c(C)c4cc(C)c(cc5nc(cc1[nH]2)C(C)=C5CC)[nH]4)[C@@H](CCC(=O)N(C)CCOCCO)[C@@H]3C [Compound 18, 3-((7S,8S)-18-ethyl-2,5,8,12,17-pentamethyl-13-vinyl-7H,8H-porphyrin-7-yl)-N-(2-(2-hydroxyethoxy)ethyl)-N-methylpropanamide]	32300 nM	1060.0	100 nM	–
C=Cc1c(C)c2cc3nc(c(C)c4cc(C)c(cc5nc(cc1[nH]2)C(C)=C5CC)[nH]4)[C@@H](CCC(=O)NCCOCCO[C@@H]1O[C@H](CO)[C@@H](O)[C@H](O)[C@H]1O)[C@@H]3C [Compound 20, 3-((7S,8S)-18-ethyl-2,5,8,12,17-pentamethyl-13-vinyl-7H,8H-porphyrin-7-yl)-N-(2-(2-(((2R,3R,4S,5S,6R)-3,4,5-trihydroxy-6-(hydroxymethyl)tetrahydro-2H-pyran-2-yl)oxy)ethoxy)ethyl)propanamide]	46230 nM	1210.0	230 nM	–
C=Cc1c(C)c2cc3nc(c(CC(=O)N[C@@H](CC(=O)O)C(=O)O)c4[nH]c(cc5nc(cc1[nH]2)C(C)=C5CC)c(C)c4C(=O)O)[C@@H](CCC(=O)O)[C@@H]3C [Talaporfin sodium, mono-L-aspartyl chlorin e6, reference compound]	11100 nM	736.7	22800 nM	–
